Experimental data reported in patent publication US20250263390A1, “NOVEL SUBSTITUTED 6,7-DIHYDRO-5H-BENZO[7]ANNULENE COMPOUNDS AND THEIR DERIVATIVES, PROCESSES FOR THEIR PREPARATION AND THERAPEUTIC USES THEREOF” (SANOFI, priority 2022, published 2025).

These compounds were tested against T1, ERα (Homo sapiens, UniProt P03372) (assay: Estrogen receptor degradation activity: breast cancer cell ERα in cell western assay). Details: MCF7 cells, 4 hours, relative to fulvestrant 0.1 μM positive control.
T1 construct: host or cells: MCF7
T1 sequence (P03372 1-595): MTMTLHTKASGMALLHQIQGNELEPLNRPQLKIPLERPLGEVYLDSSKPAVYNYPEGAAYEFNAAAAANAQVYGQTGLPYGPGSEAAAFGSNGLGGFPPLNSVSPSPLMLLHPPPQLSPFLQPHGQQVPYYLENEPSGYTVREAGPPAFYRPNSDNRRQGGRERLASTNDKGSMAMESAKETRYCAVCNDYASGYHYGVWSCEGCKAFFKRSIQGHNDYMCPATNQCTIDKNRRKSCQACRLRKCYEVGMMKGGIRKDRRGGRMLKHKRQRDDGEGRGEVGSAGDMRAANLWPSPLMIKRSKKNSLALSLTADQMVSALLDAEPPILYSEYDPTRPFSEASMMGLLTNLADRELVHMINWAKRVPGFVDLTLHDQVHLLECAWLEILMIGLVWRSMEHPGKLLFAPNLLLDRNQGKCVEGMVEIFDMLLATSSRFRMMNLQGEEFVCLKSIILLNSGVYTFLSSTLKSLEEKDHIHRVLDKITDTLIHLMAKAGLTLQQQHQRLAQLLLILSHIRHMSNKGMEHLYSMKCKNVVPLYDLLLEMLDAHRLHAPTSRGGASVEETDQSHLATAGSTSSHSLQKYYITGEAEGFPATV
Type: cell-based
Procedure, shortened: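 MCF7 cells in phenol red-free medium with 5% charcoal-stripped FBS, 4 h exposure to 9-point 1:5 dilutions (final 0.3–0.0000018 μM). ERα immunostained in fixed cells and normalised to DNA dye; % decrease scaled between DMSO and 0.1 μM fulvestrant, IC50 reported in nM.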

% Degradation At 0.3 μM [%]	Compound
92	Cc1cc(C2=C(c3ccc(CC4CN(CCCF)C4)cc3)c3ccc(C(=O)O)cc3CCC2)c(C)cc1F [Compound 31, 8-(4-fluoro-2,5-dimethylphenyl)-9-(4-((1-(3-fluoropropyl)azetidin-3-yl)methyl)phenyl)-6,7-dihydro-5H-benzo[7]annulene-3-carboxylic acid]
92	COc1cc(C(F)(F)F)ccc1C1=C(c2ccc(CC3CN(CCCF)C3)cc2)c2ccc(C(=O)O)cc2CCC1.Cl [Compound 16, 9-(4-((1-(3-fluoropropyl)azetidin-3-yl)methyl)phenyl)-8-(2-methoxy-4-(trifluoromethyl)phenyl)-6,7-dihydro-5H-benzo[7]annulene-3-carboxylic acid, hydrochloride]
96	COc1ccc(C2=C(c3ccc(CC4CN(CCCF)C4)cc3)c3ccc(C(=O)O)cc3CCC2)cc1OC [Compound 71, 8-(3,4-dimethoxyphenyl)-9-(4-((1-(3-fluoropropyl)azetidin-3-yl)methyl)phenyl)-6,7-dihydro-5H-benzo[7]annulene-3-carboxylic acid]
92	COc1cccc(Cl)c1C1=C(c2ccc(CC3CN(CCCF)C3)cc2)c2ccc(C(=O)O)cc2CCC1 [Compound 44, 8-(2-chloro-6-methoxyphenyl)-9-(4-((1-(3-fluoropropyl)azetidin-3-yl)methyl)phenyl)-6,7-dihydro-5H-benzo[7]annulene-3-carboxylic acid]
86	O=C(O)c1ccc2c(c1)CCCC(c1cccc3c1CCCO3)=C2c1ccc(CC2CN(CCCF)C2)cc1 [Compound 12, 8-(chroman-5-yl)-9-(4-((1-(3-fluoropropyl)azetidin-3-yl)methyl)phenyl)-6,7-dihydro-5H-benzo[7]annulene-3-carboxylic acid]
90	Cc1cccc(C2=C(c3ccc(CC4CN(CCCF)C4)cc3)c3ccc(C(=O)O)cc3CCC2)c1C(F)F.Cl [Compound 54, 8-(2-(difluoromethyl)-3-methylphenyl)-9-(4-((1-(3-fluoropropyl)azetidin-3-yl)methyl)phenyl)-6,7-dihydro-5H-benzo[7]annulene-3-carboxylic acid, hydrochloride]
93	CCc1c(C2=C(c3ccc(CC4CN(CCCF)C4)cc3)c3ccc(C(=O)O)cc3CCC2)cccc1C(F)(F)F [Compound 67, 8-(2-ethyl-3-(trifluoromethyl)phenyl)-9-(4-((1-(3-fluoropropyl)azetidin-3-yl)methyl)phenyl)-6,7-dihydro-5H-benzo[7]annulene-3-carboxylic acid]
100	O=C(O)c1ccc2c(c1)CCCC(c1ccc(F)c(O)c1F)=C2c1ccc(CC2CN(CCCF)C2)cc1 [Compound 47, 8-(2,4-difluoro-3-hydroxyphenyl)-9-(4-((1-(3-fluoropropyl)azetidin-3-yl)methyl)phenyl)-6,7-dihydro-5H-benzo[7]annulene-3-carboxylic acid]
95	O=C(O)c1ccc2c(c1)CCCC(c1cccc(C(F)(F)F)c1C(F)(F)F)=C2c1ccc(CC2CN(CCCF)C2)cc1 [Compound 59, 8-(2,3-bis(trifluoromethyl)phenyl)-9-(4-((1-(3-fluoropropyl)azetidin-3-yl)methyl)phenyl)-6,7-dihydro-5H-benzo[7]annulene-3-carboxylic acid]
91	Cc1ccc(C(F)F)c(C2=C(c3ccc(CC4CN(CCCF)C4)cc3)c3ccc(C(=O)O)cc3CCC2)c1 [Compound 23, 8-(2-(difluoromethyl)-5-methylphenyl)-9-(4-((1-(3-fluoropropyl)azetidin-3-yl)methyl)phenyl)-6,7-dihydro-5H-benzo[7]annulene-3-carboxylic acid]
